Assays:
male Wistar rats = assay: Elevated plus-maze in rats; format: in vivo, rat; settings: for Open Entries / Closed Entries / Total Distance Travelled (m) / Total Entries / % Open Time / % Open Entries / Time in open arms / Time in closed arms: rats, mean; for Open Entries: SOLVENT mean 2.57; for Closed Entries: SOLVENT mean 7.14; for Total Distance Travelled (m): SOLVENT mean 9.30; for Total Entries: SOLVENT mean 9.71; for % Open Time: SOLVENT mean 20.43; for % Open Entries: SOLVENT mean 25.57; for Time in open arms: SOLVENT mean 50.29; for Time in closed arms: SOLVENT mean 196.29
Protocol: Except where noted, the methods used were those of Miroslav M., et al., (2004) Pharmacology, Biochemistry and Behavior 79: 279-290. Experiments were carried out on male Wistar rats (Military Farm, Belgrade, Serbia and Montenegro), weighing 200-240 g. All procedures in the study conformed to EEC Directive 86/609 and were approved by the Ethical Committee on Animal Experimentation of the Medical Faculty in Belgrade. The rats were housed in transparent plastic cages, six animals per cage, and had free access to pelleted food and tap water before and after drug administration. The temperature of the animal room was 22±1° C., the relative humidity 40-70%, the illumination 120 1× and the 12/12-h light/dark period (light on at 06:00 h). All handling and testing took place during the light portion of the cycle. Throughout the study the animals were used only once.
Midazolam and flumazenil were generously donated from F. Hoffman-La Roche (Basel, Switzerland). Zolpidem was purchased from Toronto Research Chemicals (North York, Canada) and DMCM from Research Biochemicals (Natick, Mass., USA). All drugs were dissolved/suspended with the aid of sonication in a solvent containing 85% distilled water, 14% propylene glycol and 1% Tween 80™, and were administered intraperitoneally, in a volume of 1 ml/kg, 20 min before testing. Doses are expressed as the base forms of the drugs. In the cases of combined treatment, agonists were administered at separate sites, immediately after the antagonist. Each animal received a total volume of 2 ml/kg of compounds tested or appropriate vehicles, at two different injection sites.
The test apparatus was constructed of sheet metal, with a black rubber floor. It consisted of a maze elevated to a height of 50 cm with two open (50×10 cm) and two enclosed arms (50×10×40 cm), connected by junction area (central platform) measured 10×10 cm. Although the floor was rubberized, a ledge of sheet metal (0.3 cm high) surrounding the open arms was added, to avoid rats falling off. The illumination in the experimental room consisted of one red neon tube fixed on the ceiling, giving light intensity of 10 1× on the surface of the arms. The experiments were carried out during the diurnal phase (between 08:00 and 12:00 h). At the beginning of the experiment, rats were placed in the centre of the maze, facing one of the enclosed arms and observed for 5 min. The observer sat in the same room 1 m from the maze. After each trial, the maze was cleaned with dry and wet towels. Throughout the study, the number of rats per treatment group was 8-14. Each experiment was run over 4 consecutive days, with three control rats per day; as there was no difference in plus-maze activity among control subgroups, they were pooled in a single control group (n=12).
All numerical data presented in the figures were given as the mean±S.E.M. Each dose-response curve (agonist or antagonist alone or agonist+antagonist) was assessed by a one-way ANOVA. If the ANOVA was significant, each treatment condition was compared with the appropriate solvent control by a Dunnett's test (a=0.05). In case of significant effect in the number of enclosed arm entries, an analysis of covariance (ANCOVA) was performed in the anxiety-related parameters using the number of enclosed arm entries as covariate. Interactions between the agonists and antagonists were analyzed separately with a two-way ANOVA [factors: agonist dose versus cotreatment (an antagonist or saline)]; pairwise comparisons for the assessment of the antagonist influence on the agonist effects were conducted by Tukey's test, one of the methods recommended even in the absence of an overall significant F-test (Wilcox R R. New designs in analysis of variance. Annu Rev Psychol 1987; 38: 29-60). Statistical analyses were performed with commercial statistical software for PC, Stat for Windows R. 5.0.

[1] = SH-053-S 20 mg/kg ip, N 6, t test p = 0.668
[2] = SH-053-S 30 mg/kg ip, N 7, t test p ≦ 0.05

In the case of `C#Cc1ccc2c(c1)C(c1ccccc1)=NC(C)c1c(C(=O)OCC)ncn1-2` (stereo not shown) [SH-053-S—CH3, 8-Ethynyl-4-methyl-6-phenyl-4H-2,5,10b-triaza-benzo[e]azulene-3-carboxylic acid ethyl ester], the melting point is reported as 197 to 199 °C, the “Open Entries” value (male Wistar rats; [1]) is reported as 3.00 and the “Closed Entries” value (male Wistar rats; SH-053-S 20 mg/kg ip, N 6, t test p = 0.059) is reported as 5.33. The “Total Distance Travelled (m)” value (male Wistar rats; SH-053-S 20 mg/kg ip, N 6, t test p = 0.145) was 7.49 m, the “Total Entries” value (male Wistar rats; SH-053-S 20 mg/kg ip, N 6, t test p = 0.349) was 8.33 and the “% Open Time” value (male Wistar rats; SH-053-S 20 mg/kg ip, N 6, t test p = 0.426) was 27.50%. The “% Open Entries” value (male Wistar rats; SH-053-S 20 mg/kg ip, N 6, t test p = 0.265) was 34.17%, the “Time in open arms” value (male Wistar rats; [1]) was 61.83 and the “Time in closed arms” value (male Wistar rats; SH-053-S 20 mg/kg ip, N 6, t test p ≦ 0.05) was 144.67. The “Open Entries” value (male Wistar rats; [2]) was 4.57, the “Closed Entries” value (male Wistar rats; SH-053-S 30 mg/kg ip, N 7, t test p = 0.481) was 6.29 and the “Total Distance Travelled (m)” value (male Wistar rats; SH-053-S 30 mg/kg ip, N 7, t test p = 0.910) was 9.48 m. The “Total Entries” value (male Wistar rats; SH-053-S 30 mg/kg ip, N 7, t test p = 0.525) was 10.86, the “% Open Time” value (male Wistar rats; [2]) was 36.00% and the “% Open Entries” value (male Wistar rats; [2]) was 43.71%. The “Time in open arms” value (male Wistar rats; [2]) was 93.71, the “Time in closed arms” value (male Wistar rats; SH-053-S 30 mg/kg ip, N 7, t test p = 0.116) was 164.71 and the “effects on locomotor activity (summary of FIG. 1, FIG. 2, Tables 3-6)” value (male Wistar rats; at the dose tested) was “no measurable effects on locomotor activity”. The “anxiolytic activity (summary of FIG. 1, FIG. 2, Tables 3-6)” value (male Wistar rats; rat, in vivo) was “has anxiolytic activity”.
